Reference: the supplement of paper PMC8253809

Columns and labels:
HABS [1] = astrocyte control; assay: maximal growth inhibition (yFin) relative to DMSO / staurosporine; higher = more efficacious
Procedure, shortened: (§1)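 Patient-derived pHGG/DIPG cell lines and astrocyte controls were grown on 1% Geltrex-coated 384-well plates and exposed by pin tool to a 10-point threefold dilution series (mean top concentration 35 μM), in triplicate. Exposure was 7 days (iAstro 3 days) at 37 °C, 5% CO2. CellTiter-Glo luminescence was log2-transformed, normalised per plate to % activity between negative (solvent) and positive control wells, and pooled. EC50 and maximal response (yFin) come from the lowest-AICc three- or four-parameter log-logistic fit.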

DIPGX7 [2] = H3.3 K27M diffuse intrinsic pontine glioma line; assay: as above
Procedure, shortened: as §1

HGGX6 [3] = H3.3 G34R paediatric high-grade glioma line; assay: as above
Procedure, shortened: as §1

DIPGX29 [4] = H3.3 K27M diffuse intrinsic pontine glioma line; assay: as above
Procedure, shortened: as §1

SUDIPGXXI [5] = diffuse intrinsic pontine glioma line; assay: as above
Procedure, shortened: as §1

DIPGX37 [6] = H3.3 K27M diffuse intrinsic pontine glioma line; assay: as above
Procedure, shortened: as §1

SUDIPGXIX [7] = diffuse intrinsic pontine glioma line; assay: as above
Procedure, shortened: as §1

iAstro [8] = astrocyte control; assay: as above
Procedure, shortened: as §1

SUDIPGXVII [9] = diffuse intrinsic pontine glioma line; assay: as above
Procedure, shortened: as §1

HGGX2 [10] = paediatric high-grade glioma line; assay: as above
Procedure, shortened: as §1

HABS [11] = assay: EC50 (inflection of fitted growth-inhibition curve) (log10 M)
Procedure, shortened: as §1

DIPGX7 [12] = assay: as above
Procedure, shortened: as §1

HGGX6 [13] = assay: as above
Procedure, shortened: as §1

DIPGX29 [14] = assay: as above
Procedure, shortened: as §1

SUDIPGXXI [15] = assay: as above
Procedure, shortened: as §1

DIPGX37 [16] = assay: as above
Procedure, shortened: as §1

SUDIPGXIX [17] = assay: as above
Procedure, shortened: as §1

iAstro [18] = assay: as above
Procedure, shortened: as §1

SUDIPGXVII [19] = assay: as above
Procedure, shortened: as §1

HGGX2 [20] = assay: as above
Procedure, shortened: as §1

HGGX42 [21] = H3.3 G34R paediatric high-grade glioma line; assay: area under dose-response curve of % growth inhibition (log2 RLU vs DMSO / staurosporine), 1e-11 to 1e-4 M (% x log10 M); higher = more growth inhibition
Procedure, shortened: (§2)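 On 1% Geltrex-coated 384-well plates, patient-derived pHGG/DIPG cell lines and astrocytes were treated in triplicate across 10 threefold dilutions (mean top concentration 35 μM) for 7 days, with iAstro treated for 3 days, at 37 °C, 5% CO2. Log2-transformed CellTiter-Glo luminescence was normalised per plate to % activity between solvent and positive controls. Area under the curve was obtained by the trapezoid rule from a log-logistic fit, or from a smoothing spline when that fit failed.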

SUDIPGVI = diffuse intrinsic pontine glioma line; assay: as above
Procedure, shortened: as §2

SUDIPGIV [22] = diffuse intrinsic pontine glioma line; assay: as above
Procedure, shortened: as §2

HABS [23] = assay: as above
Procedure, shortened: as §2

DIPGX7 [24] = assay: as above
Procedure, shortened: as §2

HGGX6 [25] = assay: as above
Procedure, shortened: as §2

SUDIPGXIII [26] = diffuse intrinsic pontine glioma line; assay: as above
Procedure, shortened: as §2

DIPGX29 [27] = assay: as above
Procedure, shortened: as §2

SUDIPGXXI [28] = assay: as above
Procedure, shortened: as §2

DIPGX9 [29] = diffuse intrinsic pontine glioma line; assay: as above
Procedure, shortened: as §2

HGGX39 [30] = paediatric high-grade glioma line; assay: as above
Procedure, shortened: as §2

DIPGX37 [31] = assay: as above
Procedure, shortened: as §2

SUDIPGXIX [32] = assay: as above
Procedure, shortened: as §2

iAstro [33] = assay: as above
Procedure, shortened: as §2

SUDIPGXVII [34] = assay: as above
Procedure, shortened: as §2

HGGX2 [35] = assay: as above
Procedure, shortened: as §2

HGGX42 [36] = assay: maximal growth inhibition (yFin) relative to DMSO / staurosporine; higher = more efficacious
Procedure, shortened: as §1

SUDIPGIV [37] = assay: as above
Procedure, shortened: as §1

SUDIPGXIII [38] = assay: as above
Procedure, shortened: as §1

DIPGX9 [39] = assay: as above
Procedure, shortened: as §1

HGGX39 [40] = assay: as above
Procedure, shortened: as §1

HGGX42 [41] = assay: EC50 (inflection of fitted growth-inhibition curve) (log10 M)
Procedure, shortened: as §1

SUDIPGIV [42] = assay: as above
Procedure, shortened: as §1

SUDIPGXIII [43] = assay: as above
Procedure, shortened: as §1

DIPGX9 [44] = assay: as above
Procedure, shortened: as §1

HGGX39 [45] = assay: as above
Procedure, shortened: as §1

Compound: CO[C@H]1C[C@@H]2CC[C@@H](C)[C@@](O)(O2)C(=O)C(=O)N2CCCC[C@H]2C(=O)O[C@H]([C@H](C)C[C@@H]2CC[C@@H](OC(=O)C(C)(CO)CO)[C@H](OC)C2)CC(=O)[C@H](C)/C=C(\C)[C@@H](O)[C@@H](OC)C(=O)[C@H](C)C[C@H](C)/C=C/C=C/C=C/1C [TEMSIROLIMUS]
- maximal growth inhibition (HABS [1]): 104%
- maximal growth inhibition (DIPGX7 [2]): 63.7%
- maximal growth inhibition (HGGX6 [3]): 58%
- maximal growth inhibition (DIPGX29 [4]): 116%
- maximal growth inhibition (SUDIPGXXI [5]): 124%
- maximal growth inhibition (DIPGX37 [6]): 89.6%
- maximal growth inhibition (SUDIPGXIX [7]): 96.2%
- maximal growth inhibition (iAstro [8]): 94.3%
- maximal growth inhibition (SUDIPGXVII [9]): 24.2%
- maximal growth inhibition (HGGX2 [10]): 77.4%
- EC50 (log10 M) (HABS [11]): -4.85
- EC50 (log10 M) (DIPGX7 [12]): -4.94
- EC50 (log10 M) (HGGX6 [13]): -4.79
- EC50 (log10 M) (DIPGX29 [14]): -4.69
- EC50 (log10 M) (SUDIPGXXI [15]): -5.31
- EC50 (log10 M) (DIPGX37 [16]): -4.85
- EC50 (log10 M) (SUDIPGXIX [17]): -4.89
- EC50 (log10 M) (iAstro [18]): -4.98
- EC50 (log10 M) (SUDIPGXVII [19]): -4.96
- EC50 (log10 M) (HGGX2 [20]): -4.9
- area under dose-response curve (HGGX42 [21]): 121
- area under dose-response curve (SUDIPGVI): 89
- area under dose-response curve (SUDIPGIV [22]): 83.2
- area under dose-response curve (HABS [23]): 88.3
- area under dose-response curve (DIPGX7 [24]): 71
- area under dose-response curve (HGGX6 [25]): 77.9
- area under dose-response curve (SUDIPGXIII [26]): 53.9
- area under dose-response curve (DIPGX29 [27]): 113
- area under dose-response curve (SUDIPGXXI [28]): 201
- area under dose-response curve (DIPGX9 [29]): 198
- area under dose-response curve (HGGX39 [30]): 91.8
- area under dose-response curve (DIPGX37 [31]): 123
- area under dose-response curve (SUDIPGXIX [32]): 116
- area under dose-response curve (iAstro [33]): 101
- area under dose-response curve (SUDIPGXVII [34]): 40.1
- area under dose-response curve (HGGX2 [35]): 86.5

Compound: CC[C@@]1(O)C(=O)OCc2c1cc1n(c2=O)Cc2cc3c(CN(C)C)c(O)ccc3nc2-1 [TOPOTECAN]
- maximal growth inhibition (HGGX42 [36]): 37.5%
- maximal growth inhibition (SUDIPGIV [37]): 87.4%
- maximal growth inhibition (HABS [1]): 64.3%
- maximal growth inhibition (SUDIPGXIII [38]): 26%
- maximal growth inhibition (SUDIPGXXI [5]): 79%
- maximal growth inhibition (DIPGX9 [39]): 96.3%
- maximal growth inhibition (HGGX39 [40]): 85.3%
- maximal growth inhibition (DIPGX37 [6]): 103%
- maximal growth inhibition (SUDIPGXIX [7]): 98.6%
- maximal growth inhibition (iAstro [8]): 34.6%
- maximal growth inhibition (SUDIPGXVII [9]): 39%
- EC50 (log10 M) (HGGX42 [41]): -7.08
- EC50 (log10 M) (SUDIPGIV [42]): -7.62
- EC50 (log10 M) (HABS [11]): -6.83
- EC50 (log10 M) (SUDIPGXIII [43]): -5.85
- EC50 (log10 M) (SUDIPGXXI [15]): -8.44
- EC50 (log10 M) (DIPGX9 [44]): -6.06
- EC50 (log10 M) (HGGX39 [45]): -5.44
- EC50 (log10 M) (DIPGX37 [16]): -4.78
- EC50 (log10 M) (SUDIPGXIX [17]): -5.74
- EC50 (log10 M) (iAstro [18]): -7.87
- EC50 (log10 M) (SUDIPGXVII [19]): -6.09
- area under dose-response curve (HGGX42 [21]): 119
- area under dose-response curve (SUDIPGVI): 71.8
- area under dose-response curve (SUDIPGIV [22]): 317
- area under dose-response curve (HABS [23]): 204
- area under dose-response curve (DIPGX7 [24]): 118
- area under dose-response curve (HGGX6 [25]): 75.7
- area under dose-response curve (SUDIPGXIII [26]): 60
- area under dose-response curve (DIPGX29 [27]): 71
- area under dose-response curve (SUDIPGXXI [28]): 351
- area under dose-response curve (DIPGX9 [29]): 287
- area under dose-response curve (HGGX39 [30]): 138
- area under dose-response curve (DIPGX37 [31]): 150
- area under dose-response curve (SUDIPGXIX [32]): 267
- area under dose-response curve (iAstro [33]): 134
- area under dose-response curve (SUDIPGXVII [34]): 84.5
- area under dose-response curve (HGGX2 [35]): 121

Compound: CC(=O)Nc1cccc(-n2c(=O)n(C3CC3)c(=O)c3c(Nc4ccc(I)cc4F)n(C)c(=O)c(C)c32)c1 [TRAMETINIB]
- maximal growth inhibition (HGGX42 [36]): 46.1%
- maximal growth inhibition (SUDIPGIV [37]): 26.3%
- maximal growth inhibition (HABS [1]): 78.3%
- maximal growth inhibition (SUDIPGXIII [38]): 42.5%
- maximal growth inhibition (DIPGX29 [4]): 54.2%
- maximal growth inhibition (SUDIPGXXI [5]): 91.1%
- maximal growth inhibition (DIPGX9 [39]): 99.2%
- maximal growth inhibition (HGGX39 [40]): 53.5%
- maximal growth inhibition (DIPGX37 [6]): 88.3%
- maximal growth inhibition (SUDIPGXIX [7]): 106%
- maximal growth inhibition (iAstro [8]): 32.2%
- maximal growth inhibition (SUDIPGXVII [9]): 47.3%
- EC50 (log10 M) (HGGX42 [41]): -4.9
- EC50 (log10 M) (SUDIPGIV [42]): -6.66
- EC50 (log10 M) (HABS [11]): -6.03
- EC50 (log10 M) (SUDIPGXIII [43]): -7.34
- EC50 (log10 M) (DIPGX29 [14]): -7.25
- EC50 (log10 M) (SUDIPGXXI [15]): -7.93
- EC50 (log10 M) (DIPGX9 [44]): -7.37
- EC50 (log10 M) (HGGX39 [45]): -5.15
- EC50 (log10 M) (DIPGX37 [16]): -7.38
- EC50 (log10 M) (SUDIPGXIX [17]): -7.25
- EC50 (log10 M) (iAstro [18]): -4.63
- EC50 (log10 M) (SUDIPGXVII [19]): -6.86
- area under dose-response curve (HGGX42 [21]): 51.4
- area under dose-response curve (SUDIPGVI): 62.1
- area under dose-response curve (SUDIPGIV [22]): 66.9
- area under dose-response curve (HABS [23]): 162
- area under dose-response curve (DIPGX7 [24]): 29.4
- area under dose-response curve (HGGX6 [25]): 47.4
- area under dose-response curve (SUDIPGXIII [26]): 173
- area under dose-response curve (DIPGX29 [27]): 176
- area under dose-response curve (SUDIPGXXI [28]): 358
- area under dose-response curve (DIPGX9 [29]): 334
- area under dose-response curve (HGGX39 [30]): 74.7
- area under dose-response curve (DIPGX37 [31]): 299
- area under dose-response curve (SUDIPGXIX [32]): 345
- area under dose-response curve (iAstro [33]): 19
- area under dose-response curve (SUDIPGXVII [34]): 135
- area under dose-response curve (HGGX2 [35]): 96.1
